Data on one compound can be found in patent publication US12060379B2, “Plasmalogen derivatives” (Institute of Rheological Functions of Food, priority 2018, dated 2024).

Assay [1] relates to ERK (ERK1/2) phosphorylation in mouse neuroblastoma derived NEURO2A cell. Kind of assay: ERK (ERK1/2) phosphorylation, Western Blotting, NEURO2A cells. Type of assay: cell-based. Particulars: 5 μg/ml, 30 minutes, compared with s-Pls (FIG. 1).
Protocol: Neuronal cell lines (mouse neuroblastoma derived NEURO2A cell and human neuroblastoma derived SH-SY5Y cell) were cultivated in DMEM medium containing 10% FBS (fetal bovine serum) for 24 hours. […] At this stage, the same amount of protein (50 μg of protein extracts) was subjected to an analysis to compare phosphorylation of ERK (ERK ½) (p-ERK).
Neuronal cell lines (mouse neuroblastoma derived NEURO2A cell) were cultivated in DMEM medium containing 10% FBS (fetal bovine serum) for 24 hours. […] At this stage, the same amount of protein (50 μg of protein extracts) was subjected to an analysis to compare phosphorylation of ERK (ERK %) (p-ERK).
For assay [2], the system named is ERK (ERK1/2) phosphorylation in human neuroblastoma derived SH-SY5Y cell. Kind of assay: ERK (ERK1/2) phosphorylation, Western Blotting, SH-SY5Y cells. It counts as cell-based. The following applies: 5 μg/ml, 30 minutes, compared with s-Pls (FIG. 1). On the procedure:
By using a neuronal cell line, a study was performed with respect to enhanced phosphorylation activities of ERK (ERK1/2) with compounds according to the present invention.
Neuronal cell lines (mouse neuroblastoma derived NEURO2A cell and human neuroblastoma derived SH-SY5Y cell) were cultivated in DMEM medium containing 10% FBS (fetal bovine serum) for 24 hours. Subsequently, they were cultivated in DMEM medium containing 2% FBS for overnight (18 hours), which were then processed with 5 μg/ml of s-Pls (scallop-derived Pls), Compound REO-002 according to the present invention, and Compound REO-003 according to the present invention for 30 minutes respectively, and cells were subjected to Western Blotting assay. At this stage, the same amount of protein (50 μg of protein extracts) was subjected to an analysis to compare phosphorylation of ERK (ERK ½) (p-ERK).
Neuronal cell lines (human neuroblastoma derived SH-SY5Y cell) were cultivated in DMEM medium containing 10% FBS (fetal bovine serum) for 24 hours. Subsequently, they were cultivated in DMEM medium containing 2% FBS for overnight (18 hours), which were then processed with 1 μg/ml, 5 μg/ml of Compounds REO-004-007 according to the present invention for 30 minutes respectively, and cells were subjected to Western Blotting assay. […]
On the technique in general: In western blotting, separated proteins are transferred to a membrane and probed.

On to `CC/C=C\C/C=C\C/C=C\C/C=C\C/C=C\C/C=C\CCC(=O)O[C@@H](COCCCCCOc1ccccc1)COP(=O)(O)OCCN` [REO-003], for which the “enhanced phosphorylation activities of ERK (ERK1/2) (p-ERK)” value in assay [1] and in assay [2] was “exhibit enhanced phosphorylation activities of ERK (ERK½) equivalent to s-Pls” in each case.
